What was measured:
Type in all cases: biochemical
Conditions in all cases: human recombinant enzyme (Sf9); FIGS. 14 and 15; test concentration not given
PDE11A4 = biological target: T1, PDE11A4 (Homo sapiens, UniProt Q9HCR9); test: PDE11A4 enzyme inhibition (HTRF, cAMP substrate)
T1 construct: host or cells: Sf9
Excerpt: (§1) The effects of the BL-230 and BL-236 compounds on the activity of the human enzymes PDE2A1, PDE3A, PDE4A1A, PDE4B1, PDE7A, PDE8A1, and PDE10A2 and PDE11A4 were quantified by measuring the production of adenosine 5′-monophosphate (5′AMP) from cyclic adenosine monophosphate (cAMP), with human recombinant enzyme expressed in Sf9 cells and the detection method was by using HTRF®.
(§2) The test compound, the reference compound or water (control) were mixed with the enzyme (the enzymes and their amounts used are described in Table 1) in a buffer containing 44.4 mM Tris-HCl, 5.28 mM MgCl2, 2.64 mM DTT and 0.044% Tween® 20 (pH 7.8). Then, the reaction was initiated by the addition of 40 nM of cAMP substrate and the mixture was incubated for 30 minutes at room temperature. For basal control measurements, the enzyme was omitted from the reaction mixture. The fluorescence acceptor (Dye2 labeled cAMP) and fluorescence donor (anti-cAMP antibody labeled with europium cryptate) were added in the presence of 1 mM IBMX. After 60 minutes, the fluorescence corresponding to the amount of transfer residual cAMP was measured at λex=337 nm, λem=620 nm and λem=665 nm using a microplate reader (RubyStar, BMG). The enzyme activity was determined by the signal division measured at 665 nm, by the measured signal at 620 nm (right). The results were expressed as a inhibition percentage of the control enzyme activity. […]

PDE2A1 = biological target: T2, PDE2A1 (Homo sapiens, UniProt O00408); test: PDE2A1 enzyme inhibition (HTRF, cAMP substrate)
T2 construct: host or cells: Sf9
Excerpt: as §1, §2

PDE3A = biological target: T3, PDE3A (Homo sapiens, UniProt Q14432); test: PDE3A enzyme inhibition (HTRF, cAMP substrate)
T3 construct: host or cells: Sf9
Excerpt: as §1, §2

PDE7A = biological target: T4, PDE7A (Homo sapiens, UniProt Q13946); test: PDE7A enzyme inhibition (HTRF, cAMP substrate)
T4 construct: host or cells: Sf9
Excerpt: as §1, §2

T4 sequence (Q13946 whole entry): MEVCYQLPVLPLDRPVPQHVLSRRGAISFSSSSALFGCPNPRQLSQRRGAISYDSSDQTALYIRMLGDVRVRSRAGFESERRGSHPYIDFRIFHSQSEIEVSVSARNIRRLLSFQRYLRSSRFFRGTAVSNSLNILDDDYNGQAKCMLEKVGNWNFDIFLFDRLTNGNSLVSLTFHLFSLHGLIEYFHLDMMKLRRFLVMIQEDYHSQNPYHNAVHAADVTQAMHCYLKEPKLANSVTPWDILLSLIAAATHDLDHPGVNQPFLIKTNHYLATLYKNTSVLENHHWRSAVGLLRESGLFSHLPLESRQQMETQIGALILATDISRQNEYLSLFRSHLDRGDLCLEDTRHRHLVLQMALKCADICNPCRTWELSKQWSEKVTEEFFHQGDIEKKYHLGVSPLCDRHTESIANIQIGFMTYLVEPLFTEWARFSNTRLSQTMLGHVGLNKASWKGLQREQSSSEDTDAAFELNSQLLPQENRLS
T3 sequence (Q14432 whole entry): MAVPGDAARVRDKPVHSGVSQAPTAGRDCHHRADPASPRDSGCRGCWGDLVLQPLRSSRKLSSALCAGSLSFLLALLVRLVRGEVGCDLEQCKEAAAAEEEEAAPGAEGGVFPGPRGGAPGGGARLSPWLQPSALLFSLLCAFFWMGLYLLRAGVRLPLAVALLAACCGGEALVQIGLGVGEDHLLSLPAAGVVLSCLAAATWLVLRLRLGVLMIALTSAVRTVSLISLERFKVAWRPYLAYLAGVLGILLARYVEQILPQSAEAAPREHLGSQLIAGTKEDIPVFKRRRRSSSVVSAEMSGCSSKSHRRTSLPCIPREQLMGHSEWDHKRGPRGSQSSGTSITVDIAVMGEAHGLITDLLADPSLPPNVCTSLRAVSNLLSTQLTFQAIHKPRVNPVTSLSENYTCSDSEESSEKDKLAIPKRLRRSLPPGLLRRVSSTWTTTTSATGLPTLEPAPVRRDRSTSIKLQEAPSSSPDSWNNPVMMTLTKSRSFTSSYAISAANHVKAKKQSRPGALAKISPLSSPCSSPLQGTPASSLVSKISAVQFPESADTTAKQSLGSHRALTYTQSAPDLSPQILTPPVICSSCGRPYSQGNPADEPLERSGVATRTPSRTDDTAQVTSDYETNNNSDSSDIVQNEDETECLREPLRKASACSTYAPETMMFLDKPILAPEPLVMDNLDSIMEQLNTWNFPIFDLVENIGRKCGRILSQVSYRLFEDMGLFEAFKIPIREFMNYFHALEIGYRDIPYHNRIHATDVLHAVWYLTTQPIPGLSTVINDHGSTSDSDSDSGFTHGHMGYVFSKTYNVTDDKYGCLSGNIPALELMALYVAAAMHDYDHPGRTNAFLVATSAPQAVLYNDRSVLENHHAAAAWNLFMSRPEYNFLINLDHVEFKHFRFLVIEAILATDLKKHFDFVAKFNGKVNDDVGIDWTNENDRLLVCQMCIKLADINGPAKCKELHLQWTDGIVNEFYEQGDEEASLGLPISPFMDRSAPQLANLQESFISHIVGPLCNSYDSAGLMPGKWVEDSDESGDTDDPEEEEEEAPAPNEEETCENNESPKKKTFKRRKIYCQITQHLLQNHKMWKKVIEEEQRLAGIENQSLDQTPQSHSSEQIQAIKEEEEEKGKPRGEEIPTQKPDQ
T1 sequence (Q9HCR9 whole entry): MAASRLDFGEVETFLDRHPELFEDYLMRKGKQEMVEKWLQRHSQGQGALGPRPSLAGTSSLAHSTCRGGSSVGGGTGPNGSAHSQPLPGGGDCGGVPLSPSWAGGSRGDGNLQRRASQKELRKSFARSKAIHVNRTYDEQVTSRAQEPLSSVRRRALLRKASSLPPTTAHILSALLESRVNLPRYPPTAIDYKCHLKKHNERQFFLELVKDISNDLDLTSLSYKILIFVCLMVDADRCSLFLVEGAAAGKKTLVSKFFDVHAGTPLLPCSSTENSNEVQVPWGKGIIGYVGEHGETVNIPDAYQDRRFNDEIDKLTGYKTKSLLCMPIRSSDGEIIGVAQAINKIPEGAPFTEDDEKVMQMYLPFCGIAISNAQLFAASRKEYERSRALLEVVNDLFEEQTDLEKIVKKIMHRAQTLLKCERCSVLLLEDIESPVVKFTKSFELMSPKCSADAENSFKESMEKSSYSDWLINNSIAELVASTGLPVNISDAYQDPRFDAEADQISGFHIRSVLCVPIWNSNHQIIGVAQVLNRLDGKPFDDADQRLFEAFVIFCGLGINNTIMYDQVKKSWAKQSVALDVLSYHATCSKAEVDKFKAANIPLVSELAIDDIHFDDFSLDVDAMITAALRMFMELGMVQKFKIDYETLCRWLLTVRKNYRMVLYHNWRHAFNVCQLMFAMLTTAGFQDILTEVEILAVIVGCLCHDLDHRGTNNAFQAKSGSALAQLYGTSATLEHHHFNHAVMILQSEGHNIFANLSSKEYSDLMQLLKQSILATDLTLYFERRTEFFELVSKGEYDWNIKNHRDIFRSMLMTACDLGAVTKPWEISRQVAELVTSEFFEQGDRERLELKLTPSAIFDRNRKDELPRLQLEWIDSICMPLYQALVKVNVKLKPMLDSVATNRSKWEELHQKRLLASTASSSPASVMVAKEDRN
T2 sequence (O00408 1-920 isoform O00408-2): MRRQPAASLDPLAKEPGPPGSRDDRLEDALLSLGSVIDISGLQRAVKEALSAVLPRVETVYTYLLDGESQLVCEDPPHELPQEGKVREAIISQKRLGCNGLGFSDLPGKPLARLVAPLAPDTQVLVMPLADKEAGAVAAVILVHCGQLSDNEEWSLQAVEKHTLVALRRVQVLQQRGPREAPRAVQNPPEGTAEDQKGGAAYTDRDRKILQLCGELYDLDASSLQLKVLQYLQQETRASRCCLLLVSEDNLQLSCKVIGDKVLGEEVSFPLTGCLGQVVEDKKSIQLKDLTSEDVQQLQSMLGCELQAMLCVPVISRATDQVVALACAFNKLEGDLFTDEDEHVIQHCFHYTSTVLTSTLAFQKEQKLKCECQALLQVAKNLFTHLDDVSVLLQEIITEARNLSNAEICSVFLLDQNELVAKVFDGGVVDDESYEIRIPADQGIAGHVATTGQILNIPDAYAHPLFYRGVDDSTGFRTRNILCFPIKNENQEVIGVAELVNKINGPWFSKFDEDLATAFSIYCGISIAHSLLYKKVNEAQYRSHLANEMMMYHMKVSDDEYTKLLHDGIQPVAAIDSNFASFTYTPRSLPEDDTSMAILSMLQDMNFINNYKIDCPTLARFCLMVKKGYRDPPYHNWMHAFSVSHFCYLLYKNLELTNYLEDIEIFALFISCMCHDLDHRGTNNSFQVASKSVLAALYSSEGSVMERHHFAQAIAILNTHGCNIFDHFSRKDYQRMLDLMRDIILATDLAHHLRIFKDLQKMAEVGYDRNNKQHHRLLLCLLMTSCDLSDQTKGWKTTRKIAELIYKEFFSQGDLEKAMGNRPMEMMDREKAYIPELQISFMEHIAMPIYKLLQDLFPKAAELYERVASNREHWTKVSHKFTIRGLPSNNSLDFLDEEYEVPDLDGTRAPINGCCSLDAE

Row | inhibition of PDE11A4 enzyme activity (PDE11A4) | inhibition of PDE2A1 enzyme activity (PDE2A1) | inhibition of PDE3A enzyme activity (PDE3A) | inhibition of PDE7A enzyme activity (PDE7A) | SMILES
1 | 75% | did not inhibit | did not inhibit | did not inhibit | O=C1C2=C(c3c[nH]c4ccccc34)OC(c3ccc4c(c3)OCO4)N2C(=O)CN1CCO (centres unmarked) [BL-230, 3-(benzo[d][1,3]dioxol-5yl)-7-(2-hydroxyethyl)-1-(1H-indol-3-yl)-6,7-dihydro-3H-oxazolo[3,4-a]pyrazine-5,8-dione]
2 | 80% | did not inhibit | did not inhibit | did not inhibit | C[C@@H](CO)N1CC(=O)N2C(=C(c3c[nH]c4ccccc34)OC2c2ccc3c(c2)OCO3)C1=O (stereo partly drawn) [BL-236, 3-(benzo[d][1,3]dioxol-5yl)-7-((S)1-hydroxypropan-2yl)-1-(1H-indol-3-yl)-6,7-dihydro-3H-oxazolo[3,4-a]pyrazine-5,8-dione]
